Experimental data: patent US9790169B2, “IDO inhibitors” (BRISTOL-MYERS SQUIBB COMPANY, priority 2015, dated 2017)

biological target: human IDO1 (Homo sapiens, UniProt P14902); test: Assessment of human IDO-1 inhibitory activity in HEK cells (human IDO1/HEK293 cells, kynurenine read-out with Ehrlich reagent, absorbance 490 nm); assay type: cell-based; set-up: expressed in transfected cells; conditions: HEK Human IDO-1 cellular assay
Outline: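 HEK293 cells stably expressing human IDO1 were seeded at 10,000 per well in phenol red-free RPMI with 10% FBS, treated with compound for 20 h at 37 °C. Kynurenine was measured after TCA (0.2% final) and 30 min at 50 °C, using Ehrlich reagent, A490. IC50 normalised to DMSO (0%) and 500 nM reference standard (100%).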

human IDO1, sequence (P14902 whole entry): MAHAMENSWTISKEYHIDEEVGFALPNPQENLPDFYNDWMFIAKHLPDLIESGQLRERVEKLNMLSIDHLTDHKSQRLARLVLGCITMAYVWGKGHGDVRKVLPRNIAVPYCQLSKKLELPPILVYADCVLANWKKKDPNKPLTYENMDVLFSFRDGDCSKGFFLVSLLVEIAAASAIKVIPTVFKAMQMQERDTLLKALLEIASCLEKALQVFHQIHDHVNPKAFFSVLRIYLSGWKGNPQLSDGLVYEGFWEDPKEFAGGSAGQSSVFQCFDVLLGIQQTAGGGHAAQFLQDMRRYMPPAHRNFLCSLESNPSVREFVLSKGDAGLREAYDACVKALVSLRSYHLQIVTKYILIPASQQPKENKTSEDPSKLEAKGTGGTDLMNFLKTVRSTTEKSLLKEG

`CCC(CC(=O)O)c1cc(F)c(N(CC(C)C)CC(C)C)c(NC(=O)Nc2cc(C(F)(F)F)ccc2F)c1` (racemic) [Example 976, (+/−)-3-(4-(diisobutylamino)-3-fluoro-5-(3-(2-fluoro-5-(trifluoromethyl)phenyl)ureido)phenyl)pentanoic acid] and `COCC(CC(=O)O)c1cc(F)c(N(CC(C)C)CC(C)C)c(NC(=O)Nc2ccc(OC(F)(F)F)cc2)c1` (single isomer, unassigned) [Example 1192, 3-(4-(Diisobutylamino)-3-fluoro-5-(3-(4-(trifluoromethoxy)phenyl)ureido)phenyl)-4-methoxybutanoic acid] cannot be ordered by IC50: < 50 nM for the first, < 50 nM for the second.

`CCN(c1ccc([C@@H](COC)CC(=O)O)cc1Nc1ccc(C)cc1)C1CCOCC1` (single isomer, unassigned) [Example 373] and `CCN(c1ccc([C@@H](COC)CC(=O)O)cc1Nc1ccc(Cl)cc1)C1CCOCC1` (single isomer, unassigned) [Example 376] cannot be ordered by IC50: < 5 nM for the first, < 5 nM for the second.

`COCC(CC(=O)O)c1ccc(N(CC2CC2)C2CCOCC2)c(NC(=O)Nc2ccc(C)cc2)c1` (single isomer, unassigned) [Example 676, 3-(4-((Cyclopropylmethyl)(tetrahydro-2H-pyran-4-yl)amino)-3-(3-(p-tolyl)ureido)phenyl)-4-methoxybutanoic acid] and `CC[C@H](CC(=O)O)c1ccc(N(CC)C2CCOCC2)c(NC(=O)Nc2ccc3c(c2)CS(=O)(=O)C3)c1` (single isomer, unassigned) [Example 533] cannot be ordered by IC50: > 50 nM for the first, > 50 nM for the second.

`Cc1ccc(CC(=O)Nc2cc(C(C)CC(=O)O)ccc2N(CC(C)C)C2CCOCC2)cc1` (single isomer, unassigned) [Example 966, 3-(4-(Isobutyl(tetrahydro-2H-pyran-4-yl)amino)-3-(2-(p-tolyl)acetamido)phenyl)butanoic acid] and `CCC(CC(=O)O)c1ccc(N(CC(C)C)C2CCCCC2)c(NC(=O)Cc2ccc(Cl)cc2F)c1` (racemic) [Example 1085] cannot be ordered by IC50: < 50 nM for the first, < 5 nM for the second.

`COCC(CC(=O)O)c1cc(F)c(N(CC(C)C)CC(C)C)c(NC(=O)Nc2cncnc2)c1` (single isomer, unassigned) [Example 1183, 3-(4-(Diisobutylamino)-3-fluoro-5-(3-(pyrimidin-5-yl)ureido)phenyl)-4-methoxybutanoic acid] and `COCC(CC(=O)O)c1cc(F)c(N(CC(C)C)CC(C)C)c(NC(=O)Nc2cc(C)on2)c1` (single isomer, unassigned) [Example 1184, 3-(4-(Diisobutylamino)-3-fluoro-5-(3-(5-methylisoxazol-3-yl)ureido)phenyl)-4-methoxybutanoic acid] cannot be ordered by IC50: < 50 nM for the first, < 50 nM for the second.

`CC[C@@H](CC(=O)O)c1ccc(N(CC(C)(C)O)C2CCCCC2)c(Nc2ccc(Cl)cc2)c1` (single isomer, unassigned) [Example 231] and `CC[C@@H](CC(=O)O)c1ccc(N(CC)C2CCOCC2)c(Nc2ccc(Cl)c(OC)c2)c1` (single isomer, unassigned) [Example 481] cannot be ordered by IC50: < 5 nM for the first, < 5 nM for the second.

`CCC(CC(=O)O)c1cc(NC(=O)Nc2ccc(C)cc2)c(N(CC(C)C)CC(C)C)cc1F` (racemic) [Example 1128, (±)-3-(4-(Diisobutylamino)-2-fluoro-5-(3-(p-tolyl)ureido)phenyl)pentanoic acid] and `CCC(CC(=O)O)c1cc(F)c(N(CC(C)C)CC(C)C)c(Nc2ccc(Cl)cc2)c1` (single isomer, unassigned) [Example 99, 3-(3-((4-chlorophenyl)amino)-4-(diisobutylamino)-5-fluorophenyl)pentanoic acid] cannot be ordered by IC50: < 5 nM for the first, < 5 nM for the second.

`CCOc1ncc(Nc2cc([C@@H](COC)CC(=O)O)ccc2N(CC)C2CCOCC2)cn1` (single isomer, unassigned) [Example 351] and `CCOc1ncc(Nc2cc([C@H](CC)CC(=O)NS(C)(=O)=O)ccc2N(CC)C2CCOCC2)cn1` [Example 1078, 3-(3-((2-Ethoxypyrimidin-5-yl)amino)-4-(ethyl(tetrahydro-2H-pyran-4-yl)amino)phenyl)-N-(methylsulfonyl)pentanamide] cannot be ordered by IC50: < 50 nM for the first, < 50 nM for the second.

`CCOc1ccc(NC(=O)Nc2cc([C@H](CC)CC(=O)O)ccc2N2CCC[C@H]2C(C)(C)O)cc1` (single isomer, unassigned) [Example 810] and `CCC(CC(=O)O)c1ccc(N2CCC[C@H]2C(C)(C)F)c(Nc2ccc3c(c2)OC(F)(F)O3)c1` (single isomer, unassigned) [Example 796] cannot be ordered by IC50: > 50 nM for the first, > 50 nM for the second.

`CC(C)C(CC(=O)O)c1ccc(N(C)C(C)(C)C)c(Nc2nc3ccccc3o2)c1` (single isomer, unassigned) [1008-1] and `CCCN(CC1CC1)c1ccc(C(CC)CC(=O)O)cc1Nc1ccc2nc(C)sc2c1` (single isomer, unassigned) [Example 661, 3-(4-((cyclopropylmethyl)(propyl)amino)-3-((2-methylbenzo[d]thiazol-6-yl)amino)phenyl) pentanoic acid] cannot be ordered by IC50: > 50 nM for the first, > 50 nM for the second.

`COCC(CC(=O)O)c1cc(F)c(N(CC(C)C)C2CCCCC2)c(NC(=O)Cc2cc(C)on2)c1` (single isomer, unassigned) [Example 1169, 3-(4-(cyclohexyl(isobutyl)amino)-3-fluoro-5-(2-(5-methylisoxazol-3-yl)acetamido)phenyl)-4-methoxybutanoic acid] and `CCC(CC(=O)O)c1cc(F)c(N(CC(C)C)CC(C)C)c(Nc2ccc(OCC(F)(F)F)cc2)c1` (single isomer, unassigned) [Example 98, 3-(4-(diisobutylamino)-3-fluoro-5-((4-(2,2,2-trifluoroethoxy)phenyl)amino)phenyl)pentanoic acid] cannot be ordered by IC50: > 50 nM for the first, > 50 nM for the second.

Going from `CCN(c1ccc(C(C)CC(=O)O)cc1Nc1cnc(OCC2CC2)nc1)C1CCOCC1` (single isomer, unassigned) [Example 614, 3-(3-((2-(cyclopropylmethoxy)pyrimidin-5-yl)amino)-4-(ethyl(tetrahydro-2H-pyran-4-yl)amino)phenyl)butanoic acid] to `CCC(CC(=O)O)c1ccc(N(CC)C2CCOCC2)c(NC(=O)Nc2cnc(C)nc2)c1` (single isomer, unassigned) [Example 488 Enantiomer 1, 3-(4-(Ethyl(tetrahydro-2H-pyran-4-yl)amino)-3-(3-(2-methylpyrimidin-5-yl)ureido)phenyl)pentanoic acid], the IC50 rises from < 50 nM to > 50 nM. The first is the more potent here.

First: CC[C@H](CC(=O)O)c1ccc(N(CC)C2CCOCC2)c(Nc2cn3ccnc3cn2)c1 (single isomer, unassigned) [Example 523]
Second: CCCN(c1ccc([C@@H](CC)CC(=O)O)cc1Nc1ccc2nc(C)sc2c1)C1CCOCC1 (single isomer, unassigned) [Example 537]
The IC50 of the first is higher: > 50 nM for the first, < 5 nM for the second. The second is the more potent here.

`CCC(CC(=O)O)c1cc(F)c(N(CC(C)C)CC(C)C)c(Nc2ccc(C#N)cc2)c1` (single isomer, unassigned) [Example 107, 3-(3-((4-cyanophenyl)amino)-4-(diisobutylamino)-5-fluorophenyl)pentanoic acid] and `CCC(CC(=O)O)c1ccc(N2CCOC[C@H]2C(C)C)c(Nc2ccc3c(c2)OC(F)(F)O3)c1` (single isomer, unassigned) [Example 904] cannot be ordered by IC50: < 5 nM for the first, < 5 nM for the second.

`COc1ncc(Nc2cc(C(C)CC(=O)O)ccc2N2CCC[C@H]2C(C)(C)O)cn1` (single isomer, unassigned) [Example 801] was tested, and the IC50 was > 50 nM.
